pIC50: −log10 of the molar value. Read-outs that look alike come from different tables or passages of the source. Marks after values point to notes of the source that are not given here. One block for each molecule: values may come before it.
What was measured:
D. melanogaster [1] = experiment: Longevity assay (life span and health span); assay type: in vivo, Drosophila melanogaster; details: all assayed concentrations of GLA
Description: The F1 progeny from […]^3 parental strains produced by 24 h egg-laying in yeast was used. Longevity experiments were carried out at 25°C, following the procedure described by Chavous et al., 2001 [33]. Briefly, synchronised transheterozygous 72±12 h old larvae were washed in distilled water and separated into groups of 100 individuals in vials with a mixture of 0.85 g Drosophila Instant Medium and 4 ml of the different concentrations of the two substances selected. […] Three replicates were used during the complete life span for each control and concentration established. The number of survivors was counted and the medium renewed twice a week. In addition, the Kaplan-Meier estimates of the survival function for each concentration and respective control are plotted as survival curves. Statistical analyses and significance of the curves were assessed using the SPSS 15.0 statistics software (SPSS Inc. Headquarters, Chicago, IL, USA) using the Log-Rank (Mantel-Cox) method.

D. melanogaster [2] = experiment: Toxicity assay: survival of adults from treated 72 h old larvae; assay type: in vivo, Drosophila melanogaster; details: for average toxicities (survival): average over tested concentrations
Description: Crosses were performed with optimally fertile virgin females of the flr3/TM3, Bd^s strain and mwh/mwh males. After 8 h egg-laying, 72±3 h old larvae were washed in distilled water, transferred to fresh vials with 0.85 g Drosophila Instant Medium (formula 4–24, Carolina Biological Supply, Burlington NC, USA) which were wetted with 4 ml after of put solutions of increasing concentrations of the borage seed oil and GLA. […] Taking into account the average daily food intake of D. melanogaster (1 mg/day) and the average body weight of D. melanogaster individuals (1 mg), the concentration range for both borage seed oil and GLA were calculate to fit them into the recommended fat daily intake for humans (60 g of total fat/day for 60 kg human body weight). Emerging adults of all groups were counted and stored in 70% ethanol to be analysed. Procedures are: 1) Toxicity assays evaluated (number of individuals born in treatment/number of individuals born in the negative control)x100.

D. melanogaster [3] = details: in vivo
Description: (§1) Analysis of the genotoxic and antigenotoxic activities of borage seed oil and GLA, was evaluated by the Drosophila SMART test. Two different Drosophila melanogaster strains carrying visible wing genetic markers were used: the flare (flr) strain flr^3/ln (3LR) TM3, Bd^s and the multiple wing-hair (mwh) strain mwh/mwh. The marker multiple wing hairs (mwh, 3_0.3) is a recessive mutation that is viable in homozygous flies, producing multiple hairs per cell instead of the wild type single-hair trichome. The marker flare (flr^3, 3_38.3) is a recessive mutation which produces individual wing hairs that are malformed. The flr^3 allele is retained via a balancer chromosome carrying multiple inversions and a dominant marker which is homozygous lethal (TM3, Bd^S: Third Multiple 3, Beaded-Serrate). Additional information on genetic markers can be found in [31].
(§2) Crosses were performed with optimally fertile virgin females of the flr3/TM3, Bd^s strain and mwh/mwh males. After 8 h egg-laying, 72±3 h old larvae were washed in distilled water, transferred to fresh vials with 0.85 g Drosophila Instant Medium (formula 4–24, Carolina Biological Supply, Burlington NC, USA) which were wetted with 4 ml after of put solutions of increasing concentrations of the borage seed oil and GLA. Test groups consisting of 100 larvae each were: (i) negative control (distilled water); (ii) mutagenic positive control (hydrogen peroxide 0.12 M); (iii) 5 vials with increasing concentrations of borage seed oil (12.5, 18.7, 31.2, 62.5 and 125 µl/ml); and (iv) 5 vials with increasing concentrations of GLA (8.9, 13, 22, 45 and 90 mM). Taking into account the average daily food intake of D. melanogaster (1 mg/day) and the average body weight of D. melanogaster individuals (1 mg), the concentration range for both borage seed oil and GLA were calculate to fit them into the recommended fat daily intake for humans (60 g of total fat/day for 60 kg human body weight). Emerging adults of all groups were counted and stored in 70% ethanol to be analysed. Procedures are: 1) Toxicity assays evaluated (number of individuals born in treatment/number of individuals born in the negative control)x100. 2) Genotoxicity assays evaluated mutation rate diagnosis of different groups and 3) Antigenotoxicity testing, combined treatments were performed as previously described by Anter et al., 2011 [32], by using hydrogen peroxide 0.12 M as the genotoxicant and the concentrations of borage seed oil and GLA mentioned above in groups (iii) and (iv), evaluating mutation rate diagnosis of different treatments.
(§3) Marker-heterozygous genotypes (mwh/flr^3) were mounted on slides with Faurés solution. Both dorsal and ventral surfaces of the wings containing 22,000 cells were screened under a photonic microscope at 400× magnification for the occurrence of individual spots (mwh or flr phenotype) or twin spots (mwh clone adjacent to flr clone). […] Large individual spots with three or more cells showing mwh or flr phenotypes corresponded to mutational events occurring earlier during larvae development. Twin spots with two juxtaposed clones corresponded uniquely to recombination events between the flr^3 gene and the centromere.
(§4) For the evaluation of genotoxic effects, the frequencies of spots per fly of each treated series were compared to the concurrent negative control for each class of mutational clone. A multiple-decision procedure was used to categorize results as positive, weakly positive, inconclusive, or negative. Statistical analyses were carried out for single, large, twin and total number of spots recovered. Inconclusive and positive data were evaluated by the non-parametric U test of Mann, Whitney and Wilcoxon according to Frei and Würgler 1995 [36]. The inhibition percentage for each compound and treatment was calculated following Abraham, 1994 [37] (hydrogen peroxide alone - substance assayed + hydrogen peroxide / hydrogen peroxide alone) × 100.

D. melanogaster [4] = details: for % of inhibition: calculated according to Abraham (1994)
Description: as §1, §2, §3, §4

HL60 cells = experiment: Cytotoxicity assay, Trypan Blue dye exclusion; assay type: cell-based; details: Homo sapiens, HL-60, 72 h, read-out: IC50 (concentration causing 50% inhibition of cell growth)
Description: The human promyelocytic leukaemia cell line HL60 was obtained from Dr. José M. Villalba Montoro (Department of Cell Biology, Univ. Cordoba, Spain), [34]. HL60 cells were incubated in RPMI-1640 medium (Cat N° A1049101, Invitrogen) supplemented with: L-glutamine 200 mM, (Cat N° G7513, Sigma-Aldrich, St. Louis, MO) antibiotics 100× (Cat N° A5955, Sigma-Aldrich, St. Louis, MO) and 10% heat-inactivated foetal bovine serum (Cat N° SO1805, Linus). Cells were maintained at 37°C in an atmosphere of 5% CO2. Cultures were plated at a density of 12.5×10^4cells/ml in 40 ml culture bottles (25 cm^2) and passed every 2 days.
For the assessment of cell viability, HL60 cells were placed in 12 well culture plates (1×10^5 cells/ml) and treated for 72 h with increasing concentrations of borage seed oil and GLA. Cell viability was determined by the Trypan Blue dye exclusion test (T8154, Sigma-Aldrich, St. Louis, MO). Cells were counted by adding an aliquot of 10 µl of the culture to 10 µl of the Trypan Blue dye. The mix was counted under a light inverted microscope using a Neubauer chamber (AE30/31, Motic). Aliquots were taken after 24, 36, 48, 60 and 72 h incubation. […] Curves are expressed as the percentage of survival with respect to controls at 72 h of growth. […]

[5] = tested on: leukocytes (HL-60, Jurkat and Raji cells); design: method as in PMID 12489694; details: cited from earlier work
[6] = tested on: human hepatoma HepG2 cells (E9 cells); design: method as in PMID 9660301; details: cited from earlier work

- weighted average of induced spots/wing (D. melanogaster [3]; Drosophila melanogaster): 0.23 spots/wing
Structure (SMILES): CCCCC/C=C\C/C=C\C/C=C\CCCCC(=O)O [GLA, all cis-6,9,12-octadecatrienoic acid]
- effect on life span (D. melanogaster [1]): decreased the mean survival time significantly
- Survival % Simple treatment (D. melanogaster [2]; GLA 8.9 mM (lowest concentration)): 99%
- Survival % Simple treatment (D. melanogaster [2]; GLA 8.9 mM (lowest concentration), listed as Gamma-linolenic acid): 99.25%
- Survival % Combined Treatment (D. melanogaster [2]; GLA 8.9 mM + 0.12 M hydrogen peroxide): 48.88*** %
- Survival % Simple treatment (D. melanogaster [2]; GLA 13 mM): 66.66*** %
- Survival % Combined Treatment (D. melanogaster [2]; GLA 13 mM + 0.12 M hydrogen peroxide): 22.22*** %
- Survival % Simple treatment (D. melanogaster [2]; GLA 22 mM): 39.25*** %
- Survival % Combined Treatment (D. melanogaster [2]; GLA 22 mM + 0.12 M hydrogen peroxide): 39.25*** %
- Survival % Simple treatment (D. melanogaster [2]; GLA 45 mM): 50.37*** %
- Survival % Combined Treatment (D. melanogaster [2]; GLA 45 mM + 0.12 M hydrogen peroxide): 37.77*** %
- Survival % Simple treatment (D. melanogaster [2]; GLA 90 mM): 20.74*** %
- Survival % Combined Treatment (D. melanogaster [2]; GLA 90 mM + 0.12 M hydrogen peroxide): 32.59*** %
- decrease in survival (D. melanogaster [2]; GLA, next higher concentration after the lowest (13 mM)): 66%
- toxicity to D. melanogaster (D. melanogaster [2]; lowest concentration of GLA): non-toxicity
- average toxicities (survival) (D. melanogaster [2]; plus hydrogen peroxide as a toxicant): 31%
- average toxicities (survival) (D. melanogaster [2]; simple treatment): 55%
- genotoxicity (D. melanogaster [3]): non-genotoxic
- Mutation rate (Spots per wing) Large single spots (>2 cells) m = 5 (D. melanogaster [4]; GLA 8.9 mM + H2O2 0.12 M): 0.02 (1) spots per wing
- Mutation rate (Spots per wing) Small single spots (1–2 cells) m = 2 (D. melanogaster [4]; GLA 8.9 mM + H2O2 0.12 M): 0.3 (15) spots per wing
- Mutation rate (Spots per wing) Total spots m = 2 (D. melanogaster [4]; GLA 8.9 mM + H2O2 0.12 M): 0.32 spots per wing
- Mutation rate (Spots per wing) Twin spots m = 5 (D. melanogaster [4]; GLA 8.9 mM + H2O2 0.12 M): 0 spots per wing
- % of inhibition (D. melanogaster [4]; GLA 8.9 mM + H2O2 0.12 M): 37%
- Mutation rate (Spots per wing) Large single spots (>2 cells) m = 5 (D. melanogaster [4]; GLA 13 mM + H2O2 0.12 M): 0 spots per wing
- Mutation rate (Spots per wing) Small single spots (1–2 cells) m = 2 (D. melanogaster [4]; GLA 13 mM + H2O2 0.12 M): 0.25 (3) spots per wing
- Mutation rate (Spots per wing) Total spots m = 2 (D. melanogaster [4]; GLA 13 mM + H2O2 0.12 M): 0.25 spots per wing
- Mutation rate (Spots per wing) Twin spots m = 5 (D. melanogaster [4]; GLA 13 mM + H2O2 0.12 M): 0 spots per wing
- % of inhibition (D. melanogaster [4]; GLA 13 mM + H2O2 0.12 M): 51%
- Mutation rate (Spots per wing) Large single spots (>2 cells) m = 5 (D. melanogaster [4]; GLA 22 mM + H2O2 0.12 M): 0 spots per wing
- Mutation rate (Spots per wing) Small single spots (1–2 cells) m = 2 (D. melanogaster [4]; GLA 22 mM + H2O2 0.12 M): 0.39 (11) spots per wing
- Mutation rate (Spots per wing) Total spots m = 2 (D. melanogaster [4]; GLA 22 mM + H2O2 0.12 M): 0.42 spots per wing
- Mutation rate (Spots per wing) Twin spots m = 5 (D. melanogaster [4]; GLA 22 mM + H2O2 0.12 M): 0.03 (1) spots per wing
- % of inhibition (D. melanogaster [4]; GLA 22 mM + H2O2 0.12 M): 17%
- Mutation rate (Spots per wing) Large single spots (>2 cells) m = 5 (D. melanogaster [4]; GLA 45 mM + H2O2 0.12 M): 0.03 (1) spots per wing
- Mutation rate (Spots per wing) Small single spots (1–2 cells) m = 2 (D. melanogaster [4]; GLA 45 mM + H2O2 0.12 M): 0.19 (5) spots per wing
- Mutation rate (Spots per wing) Total spots m = 2 (D. melanogaster [4]; GLA 45 mM + H2O2 0.12 M): 0.26 spots per wing
- Mutation rate (Spots per wing) Twin spots m = 5 (D. melanogaster [4]; GLA 45 mM + H2O2 0.12 M): 0.03 (1) spots per wing
- % of inhibition (D. melanogaster [4]; GLA 45 mM + H2O2 0.12 M): 49%
- Mutation rate (Spots per wing) Large single spots (>2 cells) m = 5 (D. melanogaster [4]; GLA 90 mM + H2O2 0.12 M): 0.06 (1) spots per wing
- Mutation rate (Spots per wing) Small single spots (1–2 cells) m = 2 (D. melanogaster [4]; GLA 90 mM + H2O2 0.12 M): 0.18 (3) spots per wing
- Mutation rate (Spots per wing) Total spots m = 2 (D. melanogaster [4]; GLA 90 mM + H2O2 0.12 M): 0.25 spots per wing
- Mutation rate (Spots per wing) Twin spots m = 5 (D. melanogaster [4]; GLA 90 mM + H2O2 0.12 M): 0 spots per wing
- % of inhibition (D. melanogaster [4]; GLA 90 mM + H2O2 0.12 M): 51%
- antigenotoxicity (D. melanogaster [4]; compared to hydrogen peroxide): antimutagenic
- inhibitory potential against hydrogen peroxide, weighted average (D. melanogaster [4]; over all concentrations): 38.1%
- pIC50 (HL60 cells): 4.06

Structure (SMILES): CCCCC/C=C\C/C=C\C/C=C\C/C=C\CCCC(=O)O [arachidonic acid]
- concentrations with necrotic effect ([5]; high concentrations): 400 to 1600 µM
- concentrations with apoptotic effect ([5]; low concentrations): 10 to 400 µM
- toxicity to E9 cells ([6]; pretreatment with 0.03 mM): significant toxicity

Structure (SMILES): OO [hydrogen peroxide]
- Survival percentage for 0.12 M hydrogen peroxide alone treatments (D. melanogaster [2]; 0.12 M hydrogen peroxide alone): 84.44^(4) %
- Mutation rate (Spots per wing) Large single spots (>2 cells) m = 5 (D. melanogaster [3]): 0.03 (12) spots per wing
- Mutation rate (Spots per wing) Small single spots (1–2 cells) m = 2 (D. melanogaster [3]): 0.46 (126) spots per wing
- Mutation rate (Spots per wing) Total spots m = 2 (D. melanogaster [3]): 0.51 spots per wing
- Mutation rate (Spots per wing) Twin spots m = 5 (D. melanogaster [3]): 0.01 (3) spots per wing
- N° of emerging adults (D. melanogaster [3]): 328
- Total spots diagnosis (D. melanogaster [3]): +
- Total spots diagnosis (D. melanogaster [4]; in vivo): +

Structure (SMILES): CCCCCCCC/C=C\CCCCCCCC(=O)O [oleic acid, cis-9 octadecenoic]
- toxicity to E9 cells ([6]; 0.05 mM): no significant toxicity
